Source: patent publication US20260217701A1, “SELECTIVE BET INHIBITORS AND USES THEREOF” (Tay Therapeutics Limited, priority 2022, published 2026)
Several values for one entry are separate records, joined by “and”; a condition that tells them apart may be missing. Identical values can stand only once.

Tested on: imiquimod-induced psoriasis
Test: Imiquimod-induced psoriasis model
Assay type: in vivo, mice
Set-up: Spleen Weight / Spleen Weight Ratio: unit not given here
Conditions: for PASI Scores / Number Licking / Number Licking + Scratching / Number Scratching / Distance Traveled / Number Rearings / Spleen Weight / Spleen Weight Ratio: individual animals; for Distance Traveled / Number Rearings: behavioral evaluation; for Spleen Weight / Spleen Weight Ratio: mice
How it was run: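 Mice given topical imiquimod (5% cream) daily on depilated backs Days 1–14; Compound A in 5% DMSO/40% PEG-400/55% saline from Day 8, clobetasol topical as reference. Daily PASI (erythema, induration, peeling, each 0–4, summed) Days 8–15; spleen weight, open-field behaviour, serum IL-1B, IL-6, IL-17, TNF-α, IL-22, IL-23 at Day 15.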

[1] = IMI-psoriasis model, behavioral evaluation D15, 1 mg/kg
[2] = IMI-psoriasis model, behavioral evaluation D15, 3 mg/kg
[3] = IMI-psoriasis model, behavioral evaluation D15, 10 mg/kg

## COCCn1cc(-c2ccccc2)c(-c2cn(C)c(=O)c3[nH]c(-c4cnn(C(F)(F)F)c4)cc23)cc1=O [Compound B, 4-(1-(2-methoxyethyl)-2-oxo-5-phenyl-1,2-dihydropyridin-4-yl)-6-methyl-2-(1-(trifluoromethyl)-1H-pyrazol-4-yl)-1,6-dihydro-7H-pyrrolo[2,3-c]pyridin-7-one]
IMI + Compound B 1 mg/kg, D13
  PASI Scores: 4 (2×) and 5 (3×) and 8 and 7 (2×)
IMI + Compound B 1 mg/kg, D14
  PASI Scores: 4 (2×) and 7 (2×) and 6 (3×) and 5
IMI + Compound B 1 mg/kg, D15
  PASI Scores: 5 (3×) and 7 and 4 and 6 (2×) and 3
IMI + Compound B 3 mg/kg, D8 (day treatment started)
  PASI Scores: 8 and 7 (4×)
IMI + Compound B 3 mg/kg, D9
  PASI Scores: 7 and 8 and 6 (3×)
IMI + Compound B 3 mg/kg, D10
  PASI Scores: 6 (2×) and 8 and 5 and 4
IMI + Compound B 3 mg/kg, D11
  PASI Scores: 5 (4×) and 6
IMI + Compound B 3 mg/kg, D12
  PASI Scores: 4 and 6 (3×)
IMI + Compound B 3 mg/kg, D13
  PASI Scores: 6 and 4 (3×)
IMI + Compound B 3 mg/kg, D14
  PASI Scores: 6 and 4 and 5 and 3
IMI + Compound B 3 mg/kg, D15
  PASI Scores: 4 and 5 and 3 and 1
IMI-psoriasis model, D1, 1 mg/kg, per cage (two animals)
  Use Enrichment D1: 4.0
IMI-psoriasis model, D1, 3 mg/kg, per cage (two animals)
  Use Enrichment D1: 4.0
IMI-psoriasis model, D1, 10 mg/kg, per cage (two animals)
  Use Enrichment D1: 4.0
IMI-psoriasis model, D8, 1 mg/kg, per cage (two animals)
  Use Enrichment D8: 1.0 and 1.5
IMI-psoriasis model, D9, 1 mg/kg, per cage (two animals)
  Use Enrichment D9: 1.5 and 2.0 and 1.0
IMI-psoriasis model, D10, 1 mg/kg, per cage (two animals)
  Use Enrichment D10: 2.5 and 1.5 and 3.0
IMI-psoriasis model, D11, 1 mg/kg, per cage (two animals)
  Use Enrichment D11: 3.0 and 3.5 and 2.5
IMI-psoriasis model, D11, 3 mg/kg, per cage (two animals)
  Use Enrichment D11: 2.0 and 4.0 and 2.5
IMI-psoriasis model, D12, 1 mg/kg, per cage (two animals)
  Use Enrichment D12: 1.5 and 1.0
IMI-psoriasis model, D13, 10 mg/kg, per cage (two animals)
  Use Enrichment D13: 4.0 and 2.5
IMI-psoriasis model, D14, 1 mg/kg, per cage (two animals)
  Use Enrichment D14: 2.5 and 2.0 and 1.5
IMI-psoriasis model, D14, 3 mg/kg, per cage (two animals)
  Use Enrichment D14: 3.0 and 4.0 and 3.5 and 2.5
IMI-psoriasis model, D14, 10 mg/kg, per cage (two animals)
  Use Enrichment D14: 4.0
IMI-psoriasis model, D15, 3 mg/kg, per cage (two animals)
  Use Enrichment D15: 3.5 and 4.0 and 3.0
IMI-psoriasis model, D15, 10 mg/kg, per cage (two animals)
  Use Enrichment D15: 4.0
[1]
  Number Licking: 3 (4×) and 2 and 7 and 4 and 5
  Number Licking + Scratching: 5 (3×) and 8 and 3 and 4 and 7 and 6
  Number Scratching: 2 (2×) and 5 and 0 (3×) and 1 and 3
[2]
  Number Licking: 8 (2×) and 9 and 3 (4×)
  Number Licking + Scratching: 8 and 11 and 4 and 3 (2×) and 5 and 13
  Number Scratching: 0 (3×) and 2 (2×) and 1 and 5
[3]
  Number Licking: 6 and 4 and 2 (4×) and 3
  Number Licking + Scratching: 6 and 5 and 2 (2×) and 3 (3×)
  Number Scratching: 0 (4×) and 1 (3×)
IMI-psoriasis model, 1 mg/kg
  Distance Traveled: 15 m and 7 m and 11 m and 8 m and 9 m and 13 m and 14 m (2×)
  Number Rearings: 44 and 23 and 47 and 19 and 29 and 27 and 87 and 49
  Spleen Weight: 255.35 and 280.52 and 235.85 and 298.12 and 227.47 and 255.31 and 244.77 and 316.12
  Spleen Weight Ratio: 1562.73 and 1912.20 and 1309.55 and 1793.74 and 1315.62 and 1552.98 and 1518.42 and 1820.97
IMI-psoriasis model, 3 mg/kg
  Distance Traveled: 17 m and 9 m and 23 m and 12 m and 15 m and 11 m and 13 m
  Number Rearings: 27 and 38 and 121 and 47 and 31 and 60 and 57
  Spleen Weight: 244.98 and 212.34 and 270.73 and 183.55 and 232.29 and 224.28 and 206.85 and 220.98
  Spleen Weight Ratio: 1777.79 and 1257.94 and 1699.50 and 1016.90 and 1343.49 and 1313.11 and 1297.68 and 1278.08
IMI-psoriasis model, 10 mg/kg
  Distance Traveled: 15 m and 14 m and 16 m and 7 m (3×) and 6 m
  Number Rearings: 44 (2×) and 71 and 6 and 11 and 1 and 13
  Spleen Weight: 184.80 and 169.45 and 184.96 and 119.62 and 101.24 and 156.25 and 130.42 and 159.58
IMI-psoriasis model, mean D1-D8, 1 mg/kg, per cage (two animals)
  Use Enrichment Mean D1-D8: 2.50 and 2.75
IMI-psoriasis model, mean D1-D8, 3 mg/kg, per cage (two animals)
  Use Enrichment Mean D1-D8: 2.50 and 2.75 and 2.25
IMI-psoriasis model, mean D1-D8, 10 mg/kg, per cage (two animals)
  Use Enrichment Mean D1-D8: 2.50 and 2.75 and 2.00 and 3.00
IMI-psoriasis model, mean D8-D15, 1 mg/kg, per cage (two animals)
  Use Enrichment Mean D8-D15: 2.57 and 2.07 and 2.43 and 2.14
IMI-psoriasis model, mean D8-D15, 10 mg/kg, per cage (two animals)
  Use Enrichment Mean D8-D15: 3.50 and 2.29 and 1.93 and 3.07
